In US8697705B2, “Isoindolinone derivatives” (Hoffmann-La Roche Inc., priority 2011, dated 2014):

Assays:
[1] = target: T1, Recombinant human liver GK1 (GST-GK) (Homo sapiens, UniProt P35557); assay: Glucokinase in vitro assay (G6PDH-coupled, NADH generation, OD340); type: biochemical; settings: 30° C., 5 mM D-glucose, 10% dimethylsulfoxide
T1 construct: made in house; host or cells: E. coli
T1 sequence (P35557 1-466 isoform P35557-2): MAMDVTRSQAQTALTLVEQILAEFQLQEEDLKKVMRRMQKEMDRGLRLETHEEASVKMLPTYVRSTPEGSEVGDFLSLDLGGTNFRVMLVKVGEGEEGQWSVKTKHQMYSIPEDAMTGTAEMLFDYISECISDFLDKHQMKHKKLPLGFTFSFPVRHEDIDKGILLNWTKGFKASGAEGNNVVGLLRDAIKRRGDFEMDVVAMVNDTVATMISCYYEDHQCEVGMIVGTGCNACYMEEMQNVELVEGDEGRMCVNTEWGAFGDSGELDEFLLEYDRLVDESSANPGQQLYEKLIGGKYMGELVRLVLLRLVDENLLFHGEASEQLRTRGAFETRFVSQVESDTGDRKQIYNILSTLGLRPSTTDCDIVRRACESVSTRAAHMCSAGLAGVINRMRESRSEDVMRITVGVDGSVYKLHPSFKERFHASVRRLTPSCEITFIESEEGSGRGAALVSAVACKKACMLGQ
Description: Glucokinase In Vitro Assay Protocol:
Glucokinase (GK) was assayed by coupling the production of glucose-6-phosphate to the generation of NADH with glucose-6-phosphate dehydrogenase (G6PDH, 0.75-1 kunits/mg; Boehringer Mannheim, Indianapolis, Ind.) from Leuconostoc mesenteroides as the coupling enzyme (Scheme 2).
Recombinant human liver GK1 was expressed in E. coli as a glutathione S-transferase fusion protein (GST-GK) and was purified by chromatography over a glutathione-Sepharose 4B affinity column using the procedure provided by the manufacturer (Amersham Pharmacia Biotech, Piscataway, N.J.).
The assay was conducted at 30° C. in a flat bottom 96-well tissue culture plate from Costar (Cambridge, Mass.) with a final incubation volume of 120 μL. The incubation reaction contained the following: 25 mM Hepes buffer (pH 7.1), 25 mM KCl, 5 mM D-glucose, 1 mM ATP, 1.8 mM NAD, 2 mM MgCl2, 1 μM sorbitol-6-phosphate, 1 mM dithiothreitol, test drug or 10% dimethylsulfoxide, ˜7 units/ml G6PDH, and GK (see below). All organic reagents were >98% pure and were from Boehringer Mannheim with the exceptions of D-glucose and Hepes which were from Sigma Chemical Co, St Louis, Mo. Test compounds were dissolved in dimethylsulfoxide and were added to the incubation reaction minus GST-GK in a volume of 12 μL to yield a final dimethylsulfoxide concentration of 10%. This mix was pre-incubated in the temperature controlled chamber of a SPECTRAmax 250 microplate spectrophotometer (Molecular Devices Corporation, Sunnyvale, Calif.) for 10 minutes to allow temperature equilibrium and then the reaction was started by the addition of 20 μL GST-GK.
After addition of enzyme, the increase in optical density (OD) at 340 nm was monitored spectrophotometrically to determine the rate of change (OD340 per min). The GK activity (OD340/min) in control wells (10% dimethylsulfoxide minus GK activators) was compared with the activity in wells containing test GK activators, and the concentration of activator that produced a 50% increase in the activity of GK, i.e., the SC1.5, was calculated.

C57BL/6J mice = assay: Glucokinase activator in vivo screen: blood glucose lowering after oral gavage in mice; settings: Mus musculus, C57B6 mice, read-out: % gluc lowering @ 2 H; for change in vivo at 25 mg/kg: vs. control at 2 hours post 25 mg/kg oral dose
Description: Glucokinase Activator In Vivo Screen Protocol in Lean Mice:
Lean C57BL/6J mice were orally dosed via gavage with Glucokinase (GK) activator following a two hour fasting period. Blood glucose determinations were made at various (e.g. 0, 1, 2, 4 and 8 hours post-oral gavage) times during the study.
C57Bl/6J mice were obtained from Jackson Laboratory (Bar Harbor, Me.) and were maintained in a light-dark cycle with lights on from 0600-1800 hr. For studies in lean mice, the mice were received at age ten weeks and given ad libitum access to control diet (LabDiet 5001 chow, PMI Nutrition, Brentwood, Mo.), and were at least age 11 weeks at the time of study. For studies in the DIO model, the mice were received at age five weeks and given ad libitum access to Bio-Sery F3282 High Fat Diet (Frenchtown, N.J.), and were at least age 16 weeks at the time of study. The experiments were conducted during the light phase of the light-dark cycle. Mice (n=6) are weighed and fasted for a two hour period prior to oral treatment. GK activators are formulated in Gelucire vehicle (Ethanol:Gelucire44/14:PEG400q.s. 4:66:30 v/w/v). For studies in lean mice, the mice were dosed orally with 5.0 μL per gram of body weight (i.e. 5 ml/kg×10.0 mg/ml formulation to equal a 50 mg/kg dose). For studies in DIO mice, the mice were dosed orally with 5.0 μL per gram of body weight (i.e. 5.0 ml/kg×5 mg/ml formulation to equal a 25 mg/kg dose). Immediately prior to dosing, a pre-dose (time zero) blood glucose reading was acquired by snipping off a small portion of the animal's tail and collecting 15 μL blood into a heparinized capillary tube for analysis. Following GK activator administration, additional blood glucose readings were taken at various time points post dose from the same tail wound. Results were interpreted by comparing the mean blood glucose values of vehicle treated mice with GK activator treated mice over the study period.
Table 2 below provides data for % glucose lowering of a representative number of compounds of the present invention vs. control at 2 hours post 25 or 50 mg/kg dose in C57B6 mice: […]

SMILES	SC1.5 (concentration of activator that produced a 50% increase in the activity of GK) [1] [µM]	change in vivo at 50 mg/kg (C57BL/6J mice; vs. control at 2 hours post 50 mg/kg oral dose) [%]	change in vivo at 25 mg/kg (C57BL/6J mice) [%]
COCCn1ccc(NC(=O)[C@H](CC2CCCC2)N2Cc3c(cccc3C(F)(F)F)C2=O)n1 [Example 13, (S)-3-Cyclopentyl-N-[1-(2-methoxy-ethyl)-1H-pyrazol-3-yl]-2-(1-oxo-4-trifluoromethyl-1,3-dihydro-isoindol-2-yl)-propionamide]	0.328	-45.2	–
Cn1ccc(NC(=O)[C@H](CC2CCCC2)N2Cc3c(cccc3C(F)(F)F)C2=O)n1 [Example 1, (S)-3-Cyclopentyl-N-(1-methyl-1H-pyrazol-3-yl)-2-(1-oxo-4-trifluoromethyl-1,3-dihydro-isoindol-2-yl)-propionamide]	0.187	–	-39.8
O=C(Nc1ccn(C[C@H](O)CO)n1)[C@H](CC1CCCC1)N1Cc2c(cccc2C(F)(F)F)C1=O [Example 6, (S)-3-Cyclopentyl-N-[1-((S)-2,3-dihydroxy-propyl)-1H-pyrazol-3-yl]-2-(1-oxo-4-trifluoromethyl-1,3-dihydro-isoindol-2-yl)-propionamide]	0.119	–	-48.3

Further lines, with some results ahead:

SC1.5 (concentration of activator that produced a 50% increase in the activity of GK) [1] [µM]	SMILES	change in vivo at 50 mg/kg (C57BL/6J mice; vs. control at 2 hours post 50 mg/kg oral dose) [%]	change in vivo at 25 mg/kg (C57BL/6J mice) [%]
0.255	O=C(Nc1cnc([C@H](O)CO)cn1)[C@H](CC1CCCC1)N1Cc2c(cccc2C(F)(F)F)C1=O [Example 21, (S)-3-Cyclopentyl-N-[5-((S)-1,2-dihydroxy-ethyl)-pyrazin-2-yl]-2-(1-oxo-4-trifluoromethyl-1,3-dihydro-isoindol-2-yl)-propionamide]	–	-36.6
0.962	COCCn1ccc(NC(=O)[C@H](CC2CCCCC2)N2Cc3c(F)cccc3C2=O)n1 [Example 18, (S)-3-Cyclohexyl-2-(4-fluoro-1-oxo-1,3-dihydro-isoindol-2-yl)-N-[1-(2-methoxy-ethyl)-1H-pyrazol-3-yl]-propionamide]	–	-25.4
0.176	O=C(Nc1cnccn1)[C@H](CC1CCCC1)N1Cc2c(cccc2C(F)(F)F)C1=O [Example 15, (S)-3-Cyclopentyl-2-(1-oxo-4-trifluoromethyl-1,3-dihydro-isoindol-2-yl)-N-pyrazin-2-yl-propionamide]	–	-22.5
